Source: the supplement of paper PMC11061612

Columns and labels:
Assay in all cases: Bliss excess, mean over the matrix (fraction); higher = more synergy
[1] = test system: NCI-H1648 (Lung Adenocarcinoma)
Method in brief: (§1)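 Cell lines grown in DMEM/F12 or RPMI with 10% FBS were plated in 1536-well plates and held 24 hours at 37°C, 5% CO2 before 72 hours of exposure to two-drug dose matrices, with DMSO typically at 0.2%. CellTiter-Glo 2.0 luminescence gave viability, which was converted to inhibition. Vehicle wells were set to 0 and blank wells to 1. Combination Emax is the second-highest inhibition in the matrix, and Bliss excess is the observed combination effect minus the expected EA + EB − EA·EB, where EA and EB are the single-agent effects.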

[2] = test system: JURL-MK1 (Chronic Myelogenous Leukemia)
Method in brief: as §1

[3] = test system: JJN-3 (Plasma Cell Myeloma)
Method in brief: as §1

[4] = test system: KNS-62 (Squamous Cell Lung Carcinoma)
Method in brief: as §1

[5] = test system: NCI-H2009 (Lung Adenocarcinoma)
Method in brief: as §1

[6] = test system: GRANTA-519 (B-Cell Non-Hodgkin's Lymphoma)
Method in brief: as §1

[7] = test system: IGROV-1 (Ovarian Carcinoma)
Method in brief: as §1

[8] = test system: MRK-nu-1 (Breast Carcinoma)
Method in brief: as §1

[9] = test system: HT-3 (Cervical Carcinoma)
Method in brief: as §1

[10] = test system: CAL-85-1 (Breast Carcinoma)
Method in brief: as §1

[11] = test system: C2BBe1 (Colorectal Carcinoma)
Method in brief: as §1

[12] = test system: L-363 (Plasma Cell Myeloma)
Method in brief: as §1

[13] = test system: BT-474 (Breast Carcinoma)
Method in brief: as §1

[14] = test system: TOV-21G (Ovarian Carcinoma)
Method in brief: as §1

[15] = test system: NCI-H1048 (Small Cell Lung Carcinoma)
Method in brief: as §1

[16] = test system: A375 (Melanoma)
Method in brief: as §1

[17] = test system: TK (B-Cell Non-Hodgkin's Lymphoma)
Method in brief: as §1

[18] = test system: NCI-H1975 (Lung Adenocarcinoma)
Method in brief: as §1

[19] = test system: SK-MEL-24 (Melanoma)
Method in brief: as §1

**Q.** What does the source list for CCN(CCO)CCCOc1ccc2c(Nc3cc(CC(=O)Nc4cccc(F)c4)[nH]n3)ncnc2c1 [AZD2811] + C[C@@H]1COCCN1C2=NC(=NC(=C2)C3(CC3)[S@](=N)(=O)C)C4=C5C=CNC5=NC=C4 [AZD6738] (first compound max 1 µM, 7x7, partner max 10 µM)?
**A.** Bliss excess [1]: -0.0898; Bliss excess [2]: 0.027; Bliss excess [3]: 0.0338; Bliss excess [4]: -0.0546; Bliss excess [5]: -0.0359; Bliss excess [6]: -0.0269; Bliss excess [7]: -0.0453; Bliss excess [8]: -0.077; Bliss excess [9]: -0.0538; Bliss excess [10]: 0.0098; Bliss excess [11]: -0.0362; Bliss excess [12]: -0.0485; Bliss excess [13]: -0.0291; Bliss excess [14]: -0.0548; Bliss excess [15]: -0.0304; Bliss excess [16]: -0.0573; Bliss excess [17]: -0.0108; Bliss excess [18]: 0.0002; Bliss excess [19]: -0.0914

**Q.** What does the source list for Cc1c2c(nn1C)CSCc1cc(n(C)n1)CSc1cc(c3ccccc3c1)OCCCc1c(C(=O)O)n(C)c3c-2c(Cl)ccc13 [AZD5991] + C[C@@H]1COCCN1C2=NC(=NC(=C2)C3(CC3)[S@](=N)(=O)C)C4=C5C=CNC5=NC=C4 [AZD6738] (first compound max 1 µM, 7x7, partner max 10 µM)?
**A.** Bliss excess [1]: 0.0052; Bliss excess [2]: 0.0056; Bliss excess [3]: -0.0071; Bliss excess [4]: 0.0235; Bliss excess [5]: 0.0199; Bliss excess [6]: 0.0107; Bliss excess [7]: 0.0449; Bliss excess [8]: 0.0056; Bliss excess [9]: 0.08; Bliss excess [10]: -0.0233; Bliss excess [11]: -0.0093; Bliss excess [12]: -0.0625; Bliss excess [13]: 0.0367; Bliss excess [14]: 0.0322; Bliss excess [15]: 0.0445; Bliss excess [16]: 0.0291; Bliss excess [17]: 0.0536; Bliss excess [18]: 0.0671; Bliss excess [19]: 0.0025

**Q.** What does the source list for CN(CCO)CC[C@H](CSc1ccccc1)Nc1ccc(S(=O)(=O)NC(=O)c2ccc(N3CCC([C@@H](O)c4ccccc4-c4ccc(Cl)cc4)CC3)cc2)cc1S(=O)(=O)C(F)(F)F [AZD4320] + C1CN(CCC1(C(=O)N[C@@H](CCO)C2=CC=C(C=C2)Cl)N)C3=NC=NC4=C3C=CN4 [Capivasertib] (first compound max 1 µM, 7x7, partner max 3 µM)?
**A.** Bliss excess [1]: -0.067; Bliss excess [2]: -0.07; Bliss excess [3]: -0.0265; Bliss excess [4]: -0.0637; Bliss excess [5]: -0.0467; Bliss excess [6]: -0.0649; Bliss excess [7]: -0.0385; Bliss excess [8]: -0.0681; Bliss excess [9]: -0.0593; Bliss excess [10]: -0.0219; Bliss excess [11]: -0.0214; Bliss excess [12]: 0.0659; Bliss excess [13]: -0.0487; Bliss excess [14]: -0.0429; Bliss excess [15]: 0.0513; Bliss excess [16]: -0.0414; Bliss excess [17]: 0.0106; Bliss excess [18]: -0.0459; Bliss excess [19]: -0.0428

**Q.** With CC(=O)c1c(C)c2cnc(Nc3ccc(N4CCNCC4)cn3)nc2n(C2CCCC2)c1=O [Palbociclib] + CN(CC[C@H](CSC1=CC=CC=C1)NC2=C(C=C(C=C2)S(=O)(=O)NC(=O)C3=CC=C(C=C3)N4CCC(CC4)[C@H](C5=CC=CC=C5C6=CC=C(C=C6)Cl)O)S(=O)(=O)C(F)(F)F)CCO [AZD4320] (first compound max 10 µM, 7x7, partner max 1 µM) as the compound, how does the Bliss excess [2] read?
**A.** -0.075

**Q.** What about the Bliss excess [3] of the same compound?
**A.** -0.014

**Q.** And the Bliss excess [6]?
**A.** 0.0102

**Q.** And the Bliss excess [7]?
**A.** -0.0143

**Q.** And the Bliss excess [9]?
**A.** -0.0431

**Q.** What about the Bliss excess [11] of the same compound?
**A.** -0.0652

**Q.** And the Bliss excess [13]?
**A.** -0.108

**Q.** And the Bliss excess [14]?
**A.** -0.0853

**Q.** And the Bliss excess [15]?
**A.** 0.019

**Q.** And the Bliss excess [16]?
**A.** -0.0569

**Q.** What about the Bliss excess [17] of the same compound?
**A.** 0.0858

**Q.** And the Bliss excess [18]?
**A.** -0.0291

**Q.** What does the source list for CN(CCO)CC[C@H](CSc1ccccc1)Nc1ccc(S(=O)(=O)NC(=O)c2ccc(N3CCC([C@@H](O)c4ccccc4-c4ccc(Cl)cc4)CC3)cc2)cc1S(=O)(=O)C(F)(F)F [AZD4320] + C=CCn1c(=O)c2cnc(Nc3ccc(N4CCN(C)CC4)cc3)nc2n1-c1cccc(C(C)(C)O)n1 [AZD1775] (first compound max 1 µM, partner max 1 µM)?
**A.** Bliss excess [1]: -0.0353; Bliss excess [2]: 0.0098; Bliss excess [3]: -0.0535; Bliss excess [4]: -0.0543; Bliss excess [6]: 0.0729; Bliss excess [7]: 0.0505; Bliss excess [8]: -0.0295; Bliss excess [9]: -0.0296; Bliss excess [10]: 0.0019; Bliss excess [11]: -0.0286; Bliss excess [12]: 0.032; Bliss excess [13]: -0.0232; Bliss excess [14]: -0.0299; Bliss excess [15]: 0.27; Bliss excess [16]: 0.0133; Bliss excess [17]: 0.0407; Bliss excess [18]: 0.0195; Bliss excess [19]: 0.001

**Q.** With CN(CCO)CC[C@H](CSc1ccccc1)Nc1ccc(S(=O)(=O)NC(=O)c2ccc(N3CCC([C@@H](O)c4ccccc4-c4ccc(Cl)cc4)CC3)cc2)cc1S(=O)(=O)C(F)(F)F [AZD4320] + Cn1cnc2c(F)c(Nc3ccc(Br)cc3Cl)c(C(=O)NOCCO)cc21 [Selumetinib] (first compound max 1 µM, 7x7, partner max 3 µM) as the compound, how does the Bliss excess [1] read?
**A.** 0.0177

**Q.** What about the Bliss excess [2] of the same compound?
**A.** 0.0111

**Q.** And the Bliss excess [4]?
**A.** 0.03

**Q.** And the Bliss excess [5]?
**A.** -0.006

**Q.** What about the Bliss excess [6] of the same compound?
**A.** 0.0155

**Q.** And the Bliss excess [7]?
**A.** 0.0542

**Q.** What about the Bliss excess [8] of the same compound?
**A.** -0.0013

**Q.** And the Bliss excess [9]?
**A.** 0.0308

**Q.** And the Bliss excess [10]?
**A.** -0.0492

**Q.** And the Bliss excess [11]?
**A.** 0.0082

**Q.** What about the Bliss excess [12] of the same compound?
**A.** 0.0311

**Q.** And the Bliss excess [13]?
**A.** -0.002

**Q.** And the Bliss excess [14]?
**A.** 0.0593

**Q.** And the Bliss excess [15]?
**A.** 0.0198

**Q.** And the Bliss excess [16]?
**A.** -0.0112

**Q.** And the Bliss excess [17]?
**A.** -0.032

**Q.** And the Bliss excess [18]?
**A.** 0.0125

**Q.** And the Bliss excess [19]?
**A.** -0.0168
